Assay results published in ChEMBL document CHEMBL1147990 (Bioorg Med Chem, 2007).

Biological target: Carbonic anhydrase 5A, mitochondrial (Homo sapiens, UniProt P35218)
Assay: Inhibition of human carbonic anhydrase 5A

Carbonic anhydrase 5A, mitochondrial, sequence (P35218 whole entry): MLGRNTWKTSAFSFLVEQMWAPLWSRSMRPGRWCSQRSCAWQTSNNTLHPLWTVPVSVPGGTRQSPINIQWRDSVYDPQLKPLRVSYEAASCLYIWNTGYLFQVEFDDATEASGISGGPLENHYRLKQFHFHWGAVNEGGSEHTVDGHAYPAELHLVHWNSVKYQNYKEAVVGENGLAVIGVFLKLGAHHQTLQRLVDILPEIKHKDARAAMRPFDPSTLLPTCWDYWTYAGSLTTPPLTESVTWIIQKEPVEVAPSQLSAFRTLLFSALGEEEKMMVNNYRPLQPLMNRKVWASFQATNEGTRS

For `CC1(C)O[C@@H]2[C@@H](CO[C@@]3(COS(N)(=O)=O)OC(C)(C)O[C@@H]23)O1` [TOPIRAMATE], the Kd was 0.0254 µM.
